Laboratory results as given in patent US20240358822A1, “ALLERGY TREATMENT” (ENA RESPIRATORY PTY LTD, priority 2021, published 2024).

Key:
Format in all cases: cell-based, human
[1] = tested on: PBMC from grass pollen allergic patients; assay: Expansion of Th2 cell phenotypes on allergen stimulation, Flow Cytometry; conditions: in the presence of allergen; 6 days
Description: FIG. 3. Treatment with INNA-001 suppresses the expansion of pro-allergic Th2 cell phenotypes in response to allergen stimulation. PBMC from grass pollen allergic patients (N=12) were cultured for 6 days with or without allergen (Phlp at 10 μg/mL) and with or without a range of concentrations of INNA-001. After 6 days, the cells were harvested, washed and activated with phorbol 12-myristate 13-acetate (25 ng/mL) and ionomycin (1 μg/mL) for 5 hours. Brefeldin A (10 μg/mL) was added for the final 4 hours of stimulation. Subsequently the cells were washed and stained for anti-human CD4, CD27, CRTH2, CD49d, CD161, IL-13 and IL-4. Analysis was performed by Flow Cytometry. Proliferation of cells was measured using CellTrace violet. All data shown are mean±SEM. Graphs represent normalised changes from baseline (untreated). Statistical analysis was performed using ANOVA with Dunn's multiple comparisons test for within-group comparisons (*p<0.05, **p<0.01, ***p<0.001 for the +Phlp group).
FIG. 4. […]
PBMC from patients with allergy to Timothy grass pollen (Phleum pratense) were cultured for 6 days in the presence or absence of allergen and INNA-001 or control compounds. Allergen-induced proliferation and cytokine production were assessed and the phenotype of proliferating allergen-stimulated T cells was determined.

[2] = tested on: PBMC from grass pollen allergic patients; assay: CD4+ T regulatory cell induction in PBMC, 6 days, Flow Cytometry / FlowSOM
Description: FIG. 14. […] PBMC from grass pollen allergic patients were cultured for 6 days with or without allergen (Phlp at 10 μg/mL) and with or without a range of concentrations of INNA-001 or Pam2CSK4 (0.3, 3 and […]). At day 6 the cells were harvested, washed and stained for anti-human CD4, CD25, CD127 and Foxp3. Analysis was performed by Flow Cytometry. All data shown are mean±SEM. Graphs represent changes from baseline (untreated). Statistical analysis was performed using ANOVA with Dunn's multiple comparisons test for within-group comparisons. Mann-Whitney U test was performed for between-group comparisons. Statistical significance in the +Phlp group: *p<0.05, **p<0.01, ***p<0.001.
FIG. 15. […] PBMC from grass pollen allergic patients were cultured for 6 days with or without allergen (Phlp at 10 μg/mL) and with or without a range of concentrations of INNA-001 or Pam2CSK4 (0.3, 3 and 10 μg/ml). At day 6 the cells were harvested, washed and stained for anti-human CD4, CD25, CD127, Foxp3 and CD45RO. Analysis was performed by Flow Cytometry. All data shown are mean±SEM. Graphs represent changes from baseline (untreated) (A) naive FoxP3^+CD25^+CD127^−CD4^+CD45RO^− cells, and (B) memory FoxP3^+CD25^+CD127^−CD4^+CD45RO^+ cells. Statistical analysis was performed using ANOVA with Dunn's multiple comparisons test for within-group comparisons. Mann-Whitney U test was performed for between-group comparisons. Statistical significance in the +Phlp group: *p<0.05, **p<0.01, ***p<0.001.
FIG. 16. […] PBMC from grass pollen allergic patients (N=3 for INNA=003 & INNA-006, N=7 for INNA-001 & Pam2CSK4) were cultured for 6 days with or without allergen (Phlp at 10 μg/mL) and with or without a range of concentrations of INNA-001, INNA-003, INNA-006 or Pam2CSK4 (0.3, 3 and 10 μg/mL). At day 6 the cells were harvested, washed and stained for anti-human CD4, CD25, CD127, Foxp3 and CD45RO. Analysis was performed by Flow Cytometry. All data shown are mean±SEM.
FIG. 17. […] PBMC from grass pollen allergic patients were cultured for 6 days with allergen (Phlp at 10 μg/mL) and with or without INNA-001 or Pam2CSK4 (3 μg/mL). At 6 days the cells were harvested, washed and stained for anti-human Foxp3, CD4, CD25, CD45RO, CD127, CTLA4 and SABT1. Analysis was performed by Flow Cytometry. The data were further analysed using unbiased FlowSOM technique. Foxp3^+ T regulatory cell metacluster identification following treatment with INNA-001 A) in the presence of Phlp (N=3) or B) absence of Phlp (N=3). C) Heatmap display of the marker expression profile of the identified metaclusters (N=3). D) Quantification of population abundance of the metaclusters 3, 5 and 9 following INNA-001 and Pam2CSK4 treatment in the presence of Phlp (N=3). […]

[3] = tested on: PBMC from grass pollen allergic patients; assay: IL-10 producing monocytes after 24 hours PBMC culture, Flow Cytometry
Description: FIG. 12. […] PBMC from grass pollen allergic patients were cultured for 24 hours with or without allergen (Phlp at 10 μg/mL) and with or without a range of concentrations of INNA-001 or Pam2CSK4 (0.3, 3 and 10 μg/mL). At 24 hours the cells were harvested, washed and stained for anti-human CD14, CD16 and IL-10. Analysis was performed by Flow Cytometry. A) Flow Cytometry representative plots (N=3) for percentage of IL-10-producing subpopulation of non-classical (CD14^low CD16^+) monocytes after treatment with […] of TLR2 agonists (INNA-001 or Pam2CSK4) in the presence of Phlp. B) Quantification (N=12) of IL-10 producing non-classical (CD14^low CD16^+) and C) Quantification (N=12) of IL-10 producing classical (CD14^highCD16^−) monocytes. All data shown are mean±SEM. Graphs represent changes from baseline (untreated). Statistical analysis was performed using ANOVA with Dunn's multiple comparisons test for within-group comparisons. Mann-Whitney U test was performed for between-group comparisons. Statistical significance in the +Phlp group: *p<0.05, **p<0.01, ***p<0.001.
FIG. 13. […] PBMC from grass pollen allergic patients (N=3) were cultured for 24 hours with or without allergen (Phlp at 10 μg/mL) and with or without a range of concentrations of INNA-001, INNA-003 or INNA-006 (0.3, 3, 10 and 30 μg/ml). At 24 hours the cells were harvested, washed and stained for anti-human CD14, CD16 and IL-10. Analysis was performed by Flow Cytometry. All data shown are mean±SEM.
To examine it, PBMC from patients with allergy to Timothy grass pollen (Phleum pratense) were cultured with INNA-001 or control TLR2 agonist compounds, in the presence or absence of allergen, for 24 hours. At 24 hours the cells were harvested, washed and stained for IL-10 and the monocyte markers CD16 and CD14, using relevant anti-human antibodies. Analysis of the monocyte populations (classical and non-classical monocytes) was performed by Flow Cytometry. Lymphoid cells were excluded using antibodies against lineage markers CD3, CD4, CD15, CD19, CD56.

[4] = tested on: PBMC from grass pollen allergic patients; assay: Kinetics of IL-10 production by PBMC, ELISA
Description: (§1) FIG. 9. […] PBMC from grass pollen allergic patients (N=3) were cultured for 24 hours with or without a range of allergen concentrations (Phlp at […]), in the presence or absence of a range of INNA-001, INNA-006 or Pam2CSK4 concentrations (from 0.01 to 10 μg/mL). The culture supernatants were harvested and the levels of IL-10 (A) and IL-6 (B) were measured by ELISA. All data shown are mean±SEM.
FIG. 10. […] PBMC from grass pollen allergic patients (N=3) were cultured for 24 hours, 72 hours or 6 days, with or without allergen (Phlp […]), in the presence or absence of a range of INNA-001, INNA-006 or Pam3CSK4 concentrations (0.3, 3, 10 and 30 μg/mL). The culture supernatants were harvested and the levels of IL-10 were measured by ELISA. All data shown are mean±SEM.
(§2) PBMC from patients with allergy to Timothy grass pollen (Phleum pratense) or cat (Fel d 1) were cultured for 24 hours, 72 hours or 6 days, in the presence or absence of allergen and INNA-001, INNA-006 or Pam3CSK4 (a TLR2 agonist known to induce IL-10 production) and the production of IL-10 and IL-6 (used as a control, TLR2-induced cytokine) was measured in the cell culture supernatants.

[5] = tested on: PBMC from cat allergic patients; assay: IL-10 production by PBMC of cat allergic patients, ELISA; conditions: 24 hours, 72 hours, 6 days; cat allergen Feld 1
Description: FIG. 11. […] PBMC from cat allergic patients (N=3) were cultured for 24 hours, 72 hours or 6 days, with or without allergen (Feld 1 0.1 or […]), in the presence or absence of a range of INNA-001, INNA-006 or Pam2CSK4 concentrations (0.3, 3, 10 and 30 μg/mL). The culture supernatants were harvested and the levels of IL-10 were measured by Elisa.
as §2

[6] = tested on: PBMC from grass pollen allergic patients; assay: IL-6 production by PBMC at 24 hours, ELISA
Description: as §1, §2

Substance: Pam2CSK4
- number of proliferating IL-13 producing-Th2 (CD4+CD27-CRTH2+IL-13+) cells [1]: also reduced the number of proliferating Th2 (CD4+CD27−CRTH2+IL-13+) cells, but to a lesser degree than INNA-001
- memory FoxP3+CD25+CD127-CD4+CD45RO+ T regulatory cells [2]: Analogous
- naive FoxP3+CD25+CD127-CD4+CD45RO- T regulatory cells [2]: Analogous
- total number of CD4+CD25+CD127- regulatory T cells [2]: Analogous results
- expansion of Foxp3+ T regulatory cell metaclusters MC3, MC5 and MC9 (FlowSOM) ([2]; 3 μg/mL): the same metaclusters were also found prominent
- number of IL-10+ non-classical CD14low/CD16+ monocytes ([3]; 24 hours): increase, although slightly less pronounced
- numbers of IL-10+ classical CD14high/CD16- monocytes ([3]; 24 hours): lower increase
- influence of allergen on IL-10+ classical monocytes ([3]; with versus without allergen): independent of the presence of allergen

Substance: Pam3CSK4
- IL-10 generation at 24 hours ([4]; 24 hours, presence or absence of allergen): rapid, dose-dependent generation of IL-10
- IL-10 levels at 72 hours and 6 days ([4]; 72 hours, 6 days): remained high, but with declining levels
- influence of parallel allergen stimulation on IL-10 production ([4]; with versus without allergen): did not appear to considerably influence
- IL-10 upregulation in PBMC of cat allergic subjects [5]: stimulated dose-dependent upregulation of IL-10
- IL-6 generation at 24 hours [6]: strong IL-6 generation
- influence of parallel allergen stimulation on IL-6 production ([6]; with versus without allergen): did not appear to influence
